Where two headings read alike, the source gives them in different places.

Holding throughout (type): cell-based
Experiment [1] has as its system A549 human lung adenocarcinoma cells. The experiment in a line: cell proliferation assay, A549. Particulars: read-out: A549 Lung (+p53). The text has this: (§1) In this Example, the warfarin neoglycosides of the invention were screened for anti-tumor activity in cell proliferation assays using the following tumor cells lines: A549—human lung adenocarcinoma; H1299—human lung adenocarcinoma (p53 null); HCT-15—human colorectal adenocarcinoma; HT-29—human colorectal adenocarcinoma; MCF7—human breast adenocarcinoma; NCI-H460—human lung adenocarcinoma; SF-268—human CNS adenocarcinoma; and SKOV-3—human ovarian adenocarcinoma.
(§2) All cell lines were maintained as previously reported (see Langenhan, J. M.; Peters, N. R.; Guzei, I. A.; Hoffmann, F. M.; Thorson, J. S. Proc. Natl. Acad. Sci. USA 2005, 102, 12305-12310, which is incorporated by reference herein). Cells were harvested using 0.25% trypsin and 0.1% EDTA and counted in a Cellometer Auto T4 cell counter (Nexcelom, Inc.) prior to dilution for assay plating. Cells were plated at a denity of 500 cells per well in 50 μL volumes in 384-well clear-bottom tissue culture plates (Corning-Costar, Inc.).
(§3) Compounds were added from the 384-well compound stock plates at a 1:100 dilution using a Biomek FX liquid handler equipped with a 384-channel head (Beckman Coulter, Inc.). The plates were incubated for 7 days at 37° C. in a 5% CO2 atmosphere prior to performing the assays. Calcein AM (acetoxymethyl ester) reagent and EthD-1 (30 μL, 10 μM CAM and 100 μM EthD-1) was added and the cells were incubated for 30 min at 37° C. […] resulting from incubation with Calcein AM and EthD-1 was read using a Safire-2 microplate reader at the appropriate wavelengths. To lyse the cells, 15 μL of CellTiter-Glo reagent (Promega Corporation, Inc.) was added and the cells were incubated for 10 min at room temperature with gentle agitation. The luminescence of each plate was re-read to confirm the observed inhibition.
(§4) IC50s for cell proliferation assays were determined for Calcein AM, the ratio of live/dead cells (Calcein AM/EthD-1), and CellTiter-Glo using XLfit 4.0 as previously described (see Langenhan, J. M.; Peters, N. R.; Guzei, I. A.; Hoffmann, F. M.; Thorson, J. S. Proc. Natl. Acad. Sci. USA 2005, 102, 12305-12310, which is incorporated by reference herein). The IC50 determined using the best fit curve for dosage response from any of the 3 assays is reported as the final IC50. The best fit curve is defined as the curve with the lowest standard error.

For experiment [2], the system named is H1299 human lung adenocarcinoma (p53 null) cells. Briefly: cell proliferation assay, H1299. The following applies: Table 3 summary of most active compounds.
From the text: as §1, §2, §3
(§5) IC50s for cell proliferation assays were determined for Calcein AM, the ratio of live/dead cells (Calcein AM/EthD-1), and CellTiter-Glo using XLfit 4.0 as previously described (see Langenhan, J. M.; Peters, N. R.; Guzei, I. A.; Hoffmann, F. M.; Thorson, J. S. Proc. Natl. Acad. Sci. USA 2005, 102, 12305-12310, which is incorporated by reference herein). The IC50 determined using the best fit curve for dosage response from any of the 3 assays is reported as the final IC50.

In experiment [3] the test system is HCT-15 human colorectal adenocarcinoma cells. Briefly: cell proliferation assay, HCT-15. The following applies: for IC50: Table 3 summary of most active compounds, read-out: HCT15 Colorectal.
From the text: as §1, §2, §3, §4

Experiment [4] has as its system HT-29 human colorectal adenocarcinoma cells. Briefly: cell proliferation assay, HT-29.
From the text: as §1, §2, §3, §4

The subject of experiment [5] is MCF7 human breast adenocarcinoma cells. Briefly: cell proliferation assay, MCF7.
From the text: as §1, §2, §3, §5

In a further experiment the test system is NCI/ADR-RES. Briefly: cell proliferation assay, NCI/ADR-RES. Particulars: Table 3 summary of most active compounds. The method, then: as §2, §3, §5
Experiment [6] deals with NCI-H460 human lung adenocarcinoma cells. Briefly: cell proliferation assay, NCI-H460.
From the text: as §1, §2, §3, §4

The subject of experiment [7] is SKOV-3 human ovarian adenocarcinoma cells. Briefly: cell proliferation assay, SKOV-3. The following applies: read-out: SKOV3 Ovarian.
From the text: as §1, §2, §3, §4

Experiment [8] relates to SF-268 human CNS adenocarcinoma cells. The experiment in a line: cell proliferation assay, SF-268.
From the text: as §1, §2, §3, §5

[9] abbreviates: Table 3 summary of most active compounds, listed as L-xylose.
Setting [10] is: Table 3 summary of most active compounds, listed as D-lyxose.
Setting [11] is: Table 3 summary of most active compounds, listed as D-xylose.
Setting [12] is: Table 3 summary of most active compounds.
Setting [13] is: Table 3 summary of most active compounds, IC50, read-out: H729 Colorectal.
Setting [14] is: Table 3 summary of most active compounds, IC50, read-out: SF268 Giloblast.
[15] abbreviates: Table 3 summary of most active compounds, listed as L-arabinose.
Setting [16] is: Table 3 summary of most active compounds, listed as L-ribose.

As for `CON(C(C)CC(c1ccccc1)c1c(O)c2ccccc2oc1=O)C1OCC(O)C(O)C1O` (mixture of isomers) [WARF Analog 1], the IC50 was 67 µM in experiment [1] (setting [9]); 30 µM in experiment [2] (listed as L-xylose); 14 µM in [3] (listed as L-xylose); 37 µM in experiment [4] (Table 3 summary of most active compounds, IC50, listed as L-xylose, read-out: H729 Colorectal); 15 µM in experiment [5] (setting [9]); 50 µM in the experiment with NCI/ADR-RES (listed as L-xylose). The IC50 in experiment [6] (setting [9]) is above 100 µM; in experiment [7] (setting [9]), 45 µM.

`CON(C(C)CC(c1ccccc1)c1c(O)c2ccccc2oc1=O)C1OCC(O)C(O)C1O` (mixture of isomers) [WARF Analog 6]: the IC50 in experiment [1] (setting [10]) was 76 µM; in experiment [3] (listed as D-lyxose), 7 µM; in experiment [4] (Table 3 summary of most active compounds, IC50, listed as D-lyxose, read-out: H729 Colorectal), 52 µM; with NCI/ADR-RES (listed as D-lyxose), 57 µM; in [6] (setting [10]) it was above 100 µM; in experiment [8] (Table 3 summary of most active compounds, IC50, listed as D-lyxose, read-out: SF268 Giloblast) it was 39 µM. In [7] (setting [10]), the IC50 was 47 µM. Also, the “level of activity, in words” value in experiment [3] (HCT 15 colorectal cell lines, compared with all the neoglycosides tested) was “highest level of activity”.

As for `CON(C(C)CC(c1ccccc1)c1c(O)c2ccccc2oc1=O)C1OCC(O)C(O)C1O` (mixture of isomers) [WARF Analog 9], the IC50 turned out to be 40 µM in experiment [1] (setting [11]); 27 µM in experiment [2] (listed as D-xylose); 11 µM in [3] (listed as D-xylose); 43 µM in [4] (Table 3 summary of most active compounds, IC50, listed as D-xylose, read-out: H729 Colorectal); 12 µM in experiment [5] (setting [11]); 38 µM in the experiment with NCI/ADR-RES (listed as D-xylose). The IC50 was 99 µM in experiment [6] (setting [11]); 37 µM in experiment [8] (Table 3 summary of most active compounds, IC50, listed as D-xylose, read-out: SF268 Giloblast); 52 µM in experiment [7] (setting [11]).

As to `CON(C(C)CC(c1ccccc1)c1c(O)c2ccccc2oc1=O)C1CC(O)C(O)CO1` (mixture of isomers) [WARF Analog 11], the IC50 in [1] (setting [12]) was above 100 µM; in experiment [2] it was 92 µM; in experiment [3] it was 13 µM; in [4] (setting [13]), above 100 µM; in experiment [5] (setting [12]), 78 µM; in the experiment on NCI/ADR-RES, above 100 µM. The IC50 in experiment [6] (setting [12]), in experiment [8] (setting [14]) and in [7] (setting [12]) was above 100 µM each time.

On to `CON(C(C)CC(c1ccccc1)c1c(O)c2ccccc2oc1=O)C1OC(C)C(O)C(O)C1O` (mixture of isomers) [WARF Analog 12], for which the IC50 in [1] (setting [12]) was above 100 µM; in experiment [2], above 100 µM; in [3] (listed as L-fucose) it was 9 µM; in [4] (Table 3 summary of most active compounds, IC50, listed as L-fucose, read-out: H729 Colorectal), 80 µM; in experiment [5] (setting [12]), above 100 µM; in the experiment with NCI/ADR-RES, above 100 µM. Also, the IC50 was above 100 µM in experiment [6] (setting [12]); 89 µM in [8] (Table 3 summary of most active compounds, IC50, listed as L-fucose, read-out: SF268 Giloblast); 81 µM in [7] (Table 3 summary of most active compounds, listed as L-fucose).

On to `CON(C(C)CC(c1ccccc1)c1c(O)c2ccccc2oc1=O)C1OCC(O)C(O)C1O` (mixture of isomers) [WARF Analog 15], for which the IC50 in experiment [1] (setting [15]) amounted to 48 µM; in experiment [2] (listed as L-arabinose) it was 51 µM; in [3] (listed as L-arabinose), 49 µM; in experiment [4] (Table 3 summary of most active compounds, IC50, listed as L-arabinose, read-out: H729 Colorectal), 97 µM; in [5] (setting [15]), 79 µM; in the experiment on NCI/ADR-RES (listed as L-arabinose) it was 68 µM. Also, the IC50 in experiment [6] (setting [15]) is above 100 µM; in experiment [8] (Table 3 summary of most active compounds, IC50, listed as L-arabinose, read-out: SF268 Giloblast), 69 µM; in experiment [7] (setting [15]), 76 µM.

Take `CON(C(C)CC(c1ccccc1)c1c(O)c2ccccc2oc1=O)C1OCC(O)C(O)C1O` (mixture of isomers) [WARF Analog 25]: the IC50 is 72 µM in experiment [1] (setting [16]); 37 µM in [3] (listed as L-ribose); 72 µM in experiment [4] (Table 3 summary of most active compounds, IC50, listed as L-ribose, read-out: H729 Colorectal); 45 µM in experiment [5] (setting [16]); 62 µM in the experiment with NCI/ADR-RES (listed as L-ribose); above 100 µM in [6] (setting [16]). Besides, the IC50 in experiment [8] (Table 3 summary of most active compounds, IC50, listed as L-ribose, read-out: SF268 Giloblast) was above 100 µM; in experiment [7] (setting [16]), 60 µM.

As to `CON(C(C)CC(c1ccccc1)c1c(O)c2ccccc2oc1=O)C1OC(C)C(O)C(O)C1O` (mixture of isomers) [WARF Analog 50], the IC50 in experiment [1] (setting [12]) is above 100 µM; in experiment [3] (listed as 6-deoxy-D-glucose) it was 14 µM; in experiment [4] (Table 3 summary of most active compounds, IC50, listed as 6-deoxy-D-glucose, read-out: H729 Colorectal), above 100 µM; with NCI/ADR-RES, above 100 µM; in experiment [6] (setting [12]), above 100 µM; in experiment [8] (Table 3 summary of most active compounds, IC50, listed as 6-deoxy-D-glucose, read-out: SF268 Giloblast), above 100 µM. The IC50 in [7] (Table 3 summary of most active compounds, listed as 6-deoxy-D-glucose) is above 100 µM.

Turning to `CON(C(C)CC(c1ccccc1)c1c(O)c2ccccc2oc1=O)C1O[C@H](COCc2ccccc2)[C@@H](OCc2ccccc2)[C@@H]1OCc1ccccc1` (some centres unmarked) [WARF Analog 42], the IC50 in experiment [1] (setting [12]) amounted to 27 µM; in experiment [2], 19 µM; in [3], 11 µM; in experiment [4] (setting [13]) it was 19 µM; in experiment [5] (setting [12]), 29 µM; in the experiment on NCI/ADR-RES, 20 µM. Besides, the IC50 in [8] (setting [14]) was 20 µM; in [7] (setting [12]) it was 27 µM.

Take `CC(=O)CC(c1ccccc1)c1c(O)c2ccccc2oc1=O` (centres unmarked) [WARF Analog A, 4-hydroxy-3-(3-oxo-1-phenylbutyl)-2H-1-benzopyran-2-one, reference compound]: the IC50 in [1] (Homo sapiens, A549, Table 3 summary of most active compounds) is 781 µM; in experiment [3] (Homo sapiens, HCT-15) it was 543 µM; in experiment [4] (Homo sapiens, HT-29, read-out: H729 Colorectal), 735 µM; in experiment [5] (Homo sapiens, MCF7, Table 3 summary of most active compounds), 301 µM; in the experiment with NCI/ADR-RES (Homo sapiens) it was above 100 µM; in experiment [6] (Homo sapiens, NCI-H460, Table 3 summary of most active compounds), 557 µM. Further, the IC50 was 765 µM in experiment [8] (Homo sapiens, SF-268, read-out: SF268 Giloblast) and 393 µM in experiment [7] (Homo sapiens, SK-OV-3, Table 3 summary of most active compounds).

These data come from patent US8278436B2, “Glycosylated warfarin analogs and uses thereof” (priority 2008, dated 2012).
